Assay results from patent US9302018B2, “Fluorescent probe for imaging lymph nodes” (Eisai R&D Management Co., Ltd., priority 2010, dated 2016).
Values belong to the compound of their own block, whether it stands above or below them.

Tests used:
[1] = Maximum absorbance wavelength and molar extinction coefficient in ethanol; type: physicochemical; details: for Molar Extinction Coefficient (ε): in ethanol; for λmax (EtOH): maximum absorbance wavelength in ethanol
[2] = Fluorescence lifetime (TemPro fluorescence lifetime photometer); type: physicochemical; details: excitation 740 nm, fluorescence 816 nm
Protocol: The fluorescence lifetimes of the fluorescence probes of the present invention were measured. The TemPro fluorescence lifetime photometer (manufactured by Horiba, Ltd.) was used for measurement. Table 3 indicates the values for a chloroform solution containing each near-infrared fluorescent dye at a concentration of 3.2×10^−2 mM and an aqueous solution of ICG (control), and Table 4 indicates values obtained from each of the near-infrared fluorescent dyes incorporated in the liposomes at a concentration of 3.2×10^−2 mM. A 740 nm semiconductor laser was used for the excitation light, and the lifetime spectra obtained at a fluorescence wavelength of 816 nm was analyzed for two components.

[3] = Fluorescence detectability of fluorescent probe in vitro (brightness score, Image J); type: physicochemical; details: excitation <780 nm, fluorescence >810 nm
Protocol: Near-infrared fluorescence intensity was measured for the fluorescent dye-containing liposomes prepared in the manner described above with an aqueous solution of ICG serving as a control. 100 μL of liposome suspension containing a dye of a predetermined concentration or the ICG aqueous solution were added to a 96-well plate and irradiated with excitation light (LED light source, <780 nm) to detect the generated fluorescence (>810 nm). Brightness was evaluated using Image J image processing software.
In the table, values indicate the brightness score as determined with the Image J software (maximum value: 255), with the values shown in parentheses indicate the standard deviation.

[4] = system: mouse popliteal lymph node; assay: Fluorescent probe anchoring property in mouse popliteal lymph node; type: in vivo
Protocol: In order to investigate the lymph node anchoring property of the fluorescent probe, an ICG-8-containing fluorescent probe dispersion (liposome mean particle diameter: 240 nm, 0.2 mL, phospholipid concentration: 10 mM) or an ICG aqueous solution serving as a control (0.2 mL, 3.2 mM) was injected into the foreleg of mice (FIG. 6A) in the same manner as Example 5. Ten minutes later, the epidermal tissue was peeled off, and the site was irradiated with excitation light (LED light source, <780 nm) and the generated fluorescence (>810 nm) was detected with a monochromatic camera.
To investigate primary lymph node anchoring rate after the passage of a prescribed amount of time, an ICG-8-containing fluorescent probe or ICG aqueous solution was administered to mice in the same manner as described above. […] The p-values were calculated using Fisher's exact test.

[5] = chloroform solution, 3.2×10^−2 mM

- Molar Extinction Coefficient (ε) [1]: 2.50 × 10^5
- λmax (EtOH) [1]: 788 nm
- Fluorescence lifetime, first component (%) [2, 5]: 67%
- Fluorescence lifetime, first component (ns) [2, 5]: 1.27 ns
- Fluorescence lifetime, second component (%) [2, 5]: 33%
- Fluorescence lifetime, second component (ns) [2, 5]: 0.41 ns
SMILES: CCCCCCCCCCN1/C(=C/C=C/C=C/C=C/C2=[N+](CCCCS(=O)(=O)[O-])c3ccc4ccccc4c3C2(C)C)C(C)(C)c2c1ccc1ccccc21 [ICG-8-C10, 4(2-((1E,3E,5E,7E)-7-(1,1-dimethyl-3-decyl-1H-benzo[e]indol-2(3H)-ylidene)hepta-1,3,5-trienyl)-1,1-dimethyl-1H-benzo[e]indolium-3-yl)butane-1-sulfonic acid]

- Molar Extinction Coefficient (ε) [1]: 2.34×10^5
- λmax (EtOH) [1]: 787 nm
- Fluorescence lifetime, first component (%) [2, 5]: 69%
- Fluorescence lifetime, first component (ns) [2, 5]: 1.25 ns
- Fluorescence lifetime, second component (%) [2, 5]: 31%
- Fluorescence lifetime, second component (ns) [2, 5]: 0.31 ns
SMILES: CCCCCCN1/C(=C/C=C/C=C/C=C/C2=[N+](CCCCS(=O)(=O)[O-])c3ccc4ccccc4c3C2(C)C)C(C)(C)c2c1ccc1ccccc21 [ICG-8-C6, 4(2-((1E,3E,5E,7E)-7-(1,1-dimethyl-3-hexyl-1H-benzo[e]indol-2(3H)-ylidene)hepta-1,3,5-trienyl)-1,1-dimethyl-1H-benzo[e]indolium-3-yl)butane-1-sulfonic acid]

- Molar Extinction Coefficient (ε) [1]: 1.86×10^5
- λmax (EtOH) [1]: 786 nm
SMILES: CC1(C)C(/C=C/C=C/C=C/C=C2/N(CCC(=O)O)c3ccc4ccccc4c3C2(C)C)=[N+](CCCCS(=O)(=O)[O-])c2ccc3ccccc3c21 [ICG-6, 4-(2-((1E,3E,5E,7E)-7-(3-(2-carboxyethyl)-1,1-dimethyl-1H-benzo[e]indol-2-(3H)-ylidene)hepta-1,3,5-trienyl)-1,1-dimethyl-1H-benzo[e]indolium-3-yl)butane-1-sulfonic acid]

- Molar Extinction Coefficient (ε) [1]: 2.52×10^5
- λmax (EtOH) [1]: 787 nm
SMILES: CCCCN1/C(=C/C=C/C=C/C=C/C2=[N+](CCCCS(=O)(=O)[O-])c3ccc4ccccc4c3C2(C)C)C(C)(C)c2c1ccc1ccccc21 [ICG-8-C4, 4(2-((1E,3E,5E,7E)-7-(1,1-dimethyl-3-butyl-1H-benzo[e]indol-2(3H)-ylidene)hepta-1,3,5-trienyl)-1,1-dimethyl-1H-benzo[e]indolium-3-yl)butane-1-sulfonic acid]

SMILES: CC1(C)C(/C=C/C=C/C=C/C=C2\N(CCCCS(=O)(=O)[O-])c3ccc4ccccc4c3C2(C)C)=[N+](CCCCS(=O)(=O)[O-])c2ccc3ccccc3c21.[Na+] [ICG, Indocyanine green]
- Molar Extinction Coefficient (ε) [1]: 1.47 × 10^5
- λmax (EtOH) [1]: 787 nm
- brightness score (Image J, maximum value: 255), SD in parentheses ([3]; dye concentration 3.2 mM): 27(5)
- brightness score (Image J, maximum value: 255), SD in parentheses ([3]; dye concentration 3.2 × 10−1 mM): 38(6)
- brightness score (Image J, maximum value: 255), SD in parentheses ([3]; dye concentration 3.2 × 10−2 mM): 98(5)
- brightness score (Image J, maximum value: 255), SD in parentheses ([3]; dye concentration 3.2 × 10−3 mM): 118(10)
- brightness score (Image J, maximum value: 255), SD in parentheses ([3]; dye concentration 3.2 × 10−4 mM): 61(7)
- Fluorescence lifetime, first component (ns) ([2]; aqueous solution (control)): 0.01~0.15 ns
- No. of mice in which fluorescence was observed in primary lymph node only/total no. of mice in experiment ([4]; 1 h elapsed from administration): 0/4
- No. of mice in which fluorescence was observed in primary lymph node only/total no. of mice in experiment ([4]; 3 h elapsed from administration): 2/5
- No. of mice in which fluorescence was observed in primary lymph node only/total no. of mice in experiment ([4]; 6 h elapsed from administration): 0/4
- No. of mice in which fluorescence was observed in primary lymph node only/total no. of mice in experiment ([4]; 24 h elapsed from administration): 0/3
- Lymph nodes from which fluorescence was detected ([4]; mice, 0.2 mL into foreleg, ten minutes later, probe liposome mean particle diameter 240 nm, ICG aqueous solution 3.2 mM): emitted at the first popliteal lymph node from the foreleg as well as from the second external iliac lymph node

SMILES: CCCCCCN(CCCCCC)c1ccc(OC2=C(/C=C/C3=[N+](CCCCS(=O)(=O)[O-])c4ccc5ccccc5c4C3(C)C)CCC/C2=C\C=C2\N(CCCCS(=O)(=O)[O-])c3ccc4ccccc4c3C2(C)C)cc1.[Na+] [ICG-9, sodium [4-(2-((E)-2-((E)-2-(4-(dihexyamino)phenoxy)-3-((E)-2-(1,1-dimethyl-3-(4-sulfonatebutyl)-1H-benzo[e]indol-2(3H)-ylidene)ethylidene)cyclohexenyl)vinyl)-1,1-dimethyl-1H-benzo[e]indolium-3-yl)butane-1-sulfonate]]
- Molar Extinction Coefficient (ε) [1]: 1.24×10^5
- λmax (EtOH) [1]: 810 nm

- Molar Extinction Coefficient (ε) [1]: 2.63×10^5
- λmax (EtOH) [1]: 788 nm
SMILES: CCCCCCCCN1/C(=C/C=C/C=C/C=C/C2=[N+](CCCCS(=O)(=O)[O-])c3ccc4ccccc4c3C2(C)C)C(C)(C)c2c1ccc1ccccc21 [ICG-8-C8, 4(2-((1E,3E,5E,7E)-7-(1,1-dimethyl-3-octyl-1H-benzo[e]indol-2(3H)-ylidene)hepta-1,3,5-trienyl)-1,1-dimethyl-1H-benzo[e]indolium-3-yl)butane-1-sulfonic acid]
